pIC50: −log10 of the molar value. Like-named read-outs stand apart in the source and are kept apart here.
Test system: HSV-2
Assay: Plaque reduction assay, HSV-2 clinical isolates on Vero cells
Type: cell-based
Settings: Human alphaherpesvirus 2, Vero
Description: Viral isolates were used to infect a sub-confluent monolayer of Vero cells at a concentration of 75 or 50 plaque forming units (PFU) per well for HSV-1 and HSV-2, respectively. […] CMC medium typically used to create a semisolid interface and prevents indiscrimate viral spreading. Other materials (e.g. agar) may also be used to create this interface.
Cells were fixed with 10% formalin and stained with crystal violet before enumeration of the plaques (microscopic observation or use of fluorescent antibodies for detection is also suitable). The data obtained from these experiments were then expressed as percent inhibition of viral infectivity relative to the no drug control.
Definitions of phenotypic drug susceptibility classification as sensitive or resistant were as follows: ACV, <3 μM or >40 μM; PCV, <10 μM or >40 μM; CDV, <24 μM or >30 μM; FOS, <250 μM or >400 μM; and ACV, <6.5 μM or >40 μM; PCV, <38 μM or >40 μM; FOS, <250 μM or >400 μM for HSV-1 and HSV-2, respectively. Any IC50 values falling in between these sensitive and resistant cut-offs were reported as intermediate resistance.
The phenotype (i.e. reactivity to a drug) of the virus was characterised by the plaque reduction assay as described above. The present inventors have characterised the resistance-causing phenotype of a large number of TK and DNA pol mutations.

Nc1nc2c(ncn2CCC(CO)CO)c(=O)[nH]1 [Penciclovir, penciclovir]
pIC50 (isolate HPG001, HSV-2 TK A125T (373G>A), read-out: Drug susceptibility (IC50 value)): 5.09 | pIC50 (isolate HPG001, HSV-2 TK A125T (373G>A), read-out: Drug susceptibility Penciclovir (PCV)): > 4.42 | pIC50 (isolate HPG001, HSV-2 pol H714R (2141A>G), read-out: Drug susceptibility (IC50 value)): 5.09 | pIC50 (isolate HPG001, HSV-2 pol H714R (2141A>G), read-out: Drug susceptibility Penciclovir (PCV)): > 4.42 | pIC50 (isolate HPG004, HSV-2 pol M494T (1481T>C), also pol S729N, read-out: Drug susceptibility (IC50 value)): < 3.80 | pIC50 (isolate HPG004, HSV-2 pol M494T (1481T>C), also pol S729N, read-out: Drug susceptibility Penciclovir (PCV)): < 4.40 | pIC50 (isolate HPG007, HSV-2 pol R628G (1882C>G), read-out: Drug susceptibility (IC50 value)): < 3.80 | pIC50 (isolate HPG007, HSV-2 pol R628G (1882C>G), read-out: Drug susceptibility Penciclovir (PCV)): < 4.40 | pIC50 (isolate HPG017, HSV-2 TK Q186H (558G>T), read-out: Drug susceptibility (IC50 value)): 4.19 | pIC50 (isolate HPG017, HSV-2 TK Q186H (558G>T), read-out: Drug susceptibility Penciclovir (PCV)): < 4.40 | pIC50 (isolate HPG022, HSV-2 TK E213D (639A>C), read-out: Drug susceptibility (IC50 value)): 4.57 | pIC50 (isolate HPG022, HSV-2 TK E213D (639A>C), read-out: Drug susceptibility Penciclovir (PCV)): > 4.42 | pIC50 (isolate HPG022, HSV-2 pol D174Y (520G>T), read-out: Drug susceptibility (IC50 value)): 4.57 | pIC50 (isolate HPG022, HSV-2 pol D174Y (520G>T), read-out: Drug susceptibility Penciclovir (PCV)): > 4.42 | pIC50 (isolate HPG023, HSV-2 TK Q186H (558G>T), read-out: Drug susceptibility (IC50 value)): 4.51 | pIC50 (isolate HPG023, HSV-2 TK Q186H (558G>T), read-out: Drug susceptibility Penciclovir (PCV)): > 4.42 | pIC50 (isolate HPG024, HSV-2 TK E213D (639A>C), read-out: Drug susceptibility (IC50 value)): 5.04 | pIC50 (isolate HPG024, HSV-2 TK E213D (639A>C), read-out: Drug susceptibility Penciclovir (PCV)): > 4.42 | pIC50 (isolate HPG028, HSV-2 TK 98stop or A94fs (276delG, 278delG, 279delG, or 280delG), read-out: Drug susceptibility (IC50 value)): < 3.80 | pIC50 (isolate HPG028, HSV-2 TK 98stop or A94fs (276delG, 278delG, 279delG, or 280delG), read-out: Drug susceptibility Penciclovir (PCV)): < 4.40 | pIC50 (isolate HPG028, HSV-2 pol E776Q (2326G>C), also TK deletion (G) nt 276-280, read-out: Drug susceptibility (IC50 value)): < 3.80 | pIC50 (isolate HPG028, HSV-2 pol E776Q (2326G>C), also TK deletion (G) nt 276-280, read-out: Drug susceptibility Penciclovir (PCV)): < 4.40 | pIC50 (isolate HPG028, HSV-2 pol R775C, R775W (2323C>T; 2325C>G), also TK deletion (G) nt 276-280, read-out: Drug susceptibility (IC50 value)): < 3.80 | pIC50 (isolate HPG028, HSV-2 pol R775C, R775W (2323C>T; 2325C>G), also TK deletion (G) nt 276-280, read-out: Drug susceptibility Penciclovir (PCV)): < 4.40 | pIC50 (isolate HPG030, HSV-2 TK Q90stop (268C>T), read-out: Drug susceptibility (IC50 value)): < 3.80 | pIC50 (isolate HPG030, HSV-2 TK Q90stop (268C>T), read-out: Drug susceptibility Penciclovir (PCV)): < 4.40 | pIC50 (isolate HPG030, HSV-2 pol E761K (2281G>A), also TK Q90stop, read-out: Drug susceptibility (IC50 value)): < 3.80 | pIC50 (isolate HPG030, HSV-2 pol E761K (2281G>A), also TK Q90stop, read-out: Drug susceptibility Penciclovir (PCV)): < 4.40 | pIC50 (isolate HPG034, HSV-2 TK L313S (938A>C), read-out: Drug susceptibility Penciclovir (PCV)): < 4.40 | pIC50 (isolate HPG036, HSV-2 TK E84K (250G>A), read-out: Drug susceptibility (IC50 value)): < 3.80 | pIC50 (isolate HPG036, HSV-2 TK E84K (250G>A), read-out: Drug susceptibility Penciclovir (PCV)): < 4.40 | pIC50 (isolate HPG038, HSV-2 TK R34C (100C>T), read-out: Drug susceptibility (IC50 value)): 5.02 | pIC50 (isolate HPG038, HSV-2 TK R34C (100C>T), read-out: Drug susceptibility Penciclovir (PCV)): > 4.42 | pIC50 (isolate HPG044, HSV-2 TK M86L (256A>C), read-out: Drug susceptibility (IC50 value)): < 3.80 | pIC50 (isolate HPG044, HSV-2 TK M86L (256A>C), read-out: Drug susceptibility Penciclovir (PCV)): < 4.40 | pIC50 (isolate HPG048, HSV-2 TK Q90stop (268C>T), read-out: Drug susceptibility (IC50 value)): < 3.80 | pIC50 (isolate HPG048, HSV-2 TK Q90stop (268C>T), read-out: Drug susceptibility Penciclovir (PCV)): < 4.40 | pIC50 (isolate HPG048, HSV-2 pol E761K (2281G>A), also TK Q90stop, read-out: Drug susceptibility (IC50 value)): < 3.80 | pIC50 (isolate HPG048, HSV-2 pol E761K (2281G>A), also TK Q90stop, read-out: Drug susceptibility Penciclovir (PCV)): < 4.40 | pIC50 (isolate HPG057, HSV-2 TK 98stop or A94fs (276delG, 278delG, 279delG, or 280delG), read-out: Drug susceptibility (IC50 value)): < 3.80 | pIC50 (isolate HPG057, HSV-2 TK 98stop or A94fs (276delG, 278delG, 279delG, or 280delG), read-out: Drug susceptibility Penciclovir (PCV)): < 4.40 | pIC50 (isolate HPG058, HSV-2 TK 183stop or P154fs (458delC, 459delC, 460delC, or 461delC), read-out: Drug susceptibility (IC50 value)): < 3.80 | pIC50 (isolate HPG058, HSV-2 TK 183stop or P154fs (458delC, 459delC, 460delC, or 461delC), read-out: Drug susceptibility Penciclovir (PCV)): < 4.40 | pIC50 (read-out: Drug susceptibility (IC50 value), isolate HPG034, HSV-2 TK L313S (938A>C)): < 3.80 | pIC50 (read-out: Drug susceptibility (IC50 value), isolate HPG056, HSV-2 pol M447L (1339A>C)): 5.06 | pIC50 (read-out: Drug susceptibility Penciclovir (PCV), isolate HPG056, HSV-2 pol M447L (1339A>C)): > 4.42

Reference: patent US12281363B2, “Methods for detecting antiviral-drug resistant virus” (Secretary of State for Health and Social Care, priority 2018, dated 2025)
